Source: article PMC12503911, “Cytotoxicity of Atropisomeric [1,1′‐Binaphthalene]‐2,2′‐Diamines (BINAM) and Analogs in Human Cancer Cells: Enantioselectivity, Structure–Activity Relationships, and Mechanism” (Chemmedchem, 2025)
Where two headings read alike, the source gives them in different places.

Assays:
Assay in all cases: biochemical
Set-up in all cases: 33PanQinase radiometric kinase activity assay, residual activity in % of control, contract lab Reaction Biology
Details in all cases: mean of intraexperimental duplicates, n = 1
[1] = molecular target: T1, Mps1/TTK (Homo sapiens, UniProt P33981)
T1 sequence (P33981 1-857): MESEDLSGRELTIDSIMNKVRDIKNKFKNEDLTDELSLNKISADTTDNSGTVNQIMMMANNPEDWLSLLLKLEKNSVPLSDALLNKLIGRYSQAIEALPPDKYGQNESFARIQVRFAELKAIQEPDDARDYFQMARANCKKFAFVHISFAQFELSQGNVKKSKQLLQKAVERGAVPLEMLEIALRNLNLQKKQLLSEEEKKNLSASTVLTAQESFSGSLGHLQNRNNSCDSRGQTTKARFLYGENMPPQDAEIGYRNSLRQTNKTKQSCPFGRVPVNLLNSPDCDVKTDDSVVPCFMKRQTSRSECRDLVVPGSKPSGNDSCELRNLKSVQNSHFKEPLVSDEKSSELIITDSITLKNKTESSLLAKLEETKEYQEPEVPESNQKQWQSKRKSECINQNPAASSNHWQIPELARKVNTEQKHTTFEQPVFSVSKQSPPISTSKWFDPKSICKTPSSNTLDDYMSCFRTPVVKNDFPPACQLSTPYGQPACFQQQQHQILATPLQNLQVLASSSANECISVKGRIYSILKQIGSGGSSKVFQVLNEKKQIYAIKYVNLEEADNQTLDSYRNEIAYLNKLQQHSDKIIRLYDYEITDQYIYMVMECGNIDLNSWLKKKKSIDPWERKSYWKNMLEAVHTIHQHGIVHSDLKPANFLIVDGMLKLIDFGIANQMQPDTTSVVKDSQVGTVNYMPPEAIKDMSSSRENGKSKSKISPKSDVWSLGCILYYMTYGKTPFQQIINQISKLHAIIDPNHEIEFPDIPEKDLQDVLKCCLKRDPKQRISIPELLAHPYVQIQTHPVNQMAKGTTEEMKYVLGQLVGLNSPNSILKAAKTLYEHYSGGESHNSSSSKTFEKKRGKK
Experimental: (§1) Kinase Screening was performed at Reaction Biology (Freiburg, Germany) by using the ^33PanQinase Assay.^[ [90] ^] Based on this knowledge, we commissioned a kinase screening by the firm Reaction Biology, targeting those kinases whose inhibition has shown an indirect effect on microtubules. In our selection, we included additional kinases that are known to be involved in centrosome amplification (PLK4^[ [82] ^]), centrosome clustering (CDK1/2,^[ [83] ^] PLK1^[ [84] ^]), spindle multipolarity (SRC^[ [85] ^]), microtubule dynamics (AKT1^[ [86] ^]), and LIMK1/2 activation (ROCK1^[ [87] ^]) or are crucial for the mitosis (BUB1B, NEK2/9, WEE1^[ [88] ^]). Nonetheless, 1(R) and 1(S) at 10 µM had almost no inhibitory effects on any of the chosen kinases (Table 4 ). Only Aurora A (mean residual activity for 1(R): 86%, 1(S): 98%) and ASK1 (mean residual activity for 1(R): 90%, 1(S): 117%) were slightly enantioselectively impacted. However, we theorize that those marginal inhibitions are not explanatory for the antiproliferative and morphological effects of 1(R) on cancer cells.

[2] = molecular target: AKT1 (Homo sapiens, UniProt P31749)
Experimental: as §1

[3] = molecular target: ROCK1 (Homo sapiens, UniProt Q13464)
Experimental: as §1

[4] = molecular target: PLK1 (Homo sapiens, UniProt P53350)
Experimental: as §1

[5] = molecular target: SRC (Homo sapiens, UniProt P12931)
Experimental: as §1

[6] = read-out: Residual activities [% of control] / 1(R) 10 µM
[7] = read-out: Residual activities [% of control] / 1(S) 10 µM

Sequence of AKT1 (P31749 whole entry): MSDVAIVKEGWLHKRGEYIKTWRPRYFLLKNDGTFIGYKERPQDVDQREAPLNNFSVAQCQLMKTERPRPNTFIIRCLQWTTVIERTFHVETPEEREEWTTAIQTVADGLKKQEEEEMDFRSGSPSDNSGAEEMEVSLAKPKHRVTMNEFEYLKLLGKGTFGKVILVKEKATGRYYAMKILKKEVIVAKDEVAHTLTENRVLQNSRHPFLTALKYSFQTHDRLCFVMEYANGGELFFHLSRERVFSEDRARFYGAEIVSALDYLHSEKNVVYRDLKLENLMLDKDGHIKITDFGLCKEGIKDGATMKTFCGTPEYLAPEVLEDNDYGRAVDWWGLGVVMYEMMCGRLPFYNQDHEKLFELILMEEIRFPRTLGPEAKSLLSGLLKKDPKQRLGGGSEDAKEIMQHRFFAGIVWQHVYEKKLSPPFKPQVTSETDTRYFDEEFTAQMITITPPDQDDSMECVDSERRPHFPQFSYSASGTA
Sequence of PLK1 (P53350 whole entry): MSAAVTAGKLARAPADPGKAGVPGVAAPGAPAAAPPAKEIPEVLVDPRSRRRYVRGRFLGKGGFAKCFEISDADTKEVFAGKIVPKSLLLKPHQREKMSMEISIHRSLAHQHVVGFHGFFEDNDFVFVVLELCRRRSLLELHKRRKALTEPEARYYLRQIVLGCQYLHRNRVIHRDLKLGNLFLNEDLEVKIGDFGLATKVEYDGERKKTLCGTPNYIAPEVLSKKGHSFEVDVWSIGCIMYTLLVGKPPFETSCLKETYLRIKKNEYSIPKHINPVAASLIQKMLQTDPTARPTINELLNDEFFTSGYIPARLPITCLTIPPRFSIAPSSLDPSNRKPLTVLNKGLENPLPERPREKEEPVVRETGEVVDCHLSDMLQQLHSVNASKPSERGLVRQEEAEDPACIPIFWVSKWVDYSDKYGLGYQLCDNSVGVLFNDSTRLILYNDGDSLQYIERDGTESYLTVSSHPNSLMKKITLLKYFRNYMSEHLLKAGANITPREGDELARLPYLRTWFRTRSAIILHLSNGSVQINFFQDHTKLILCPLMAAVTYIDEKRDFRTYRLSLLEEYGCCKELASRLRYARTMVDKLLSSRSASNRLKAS
Sequence of ROCK1 (Q13464 whole entry): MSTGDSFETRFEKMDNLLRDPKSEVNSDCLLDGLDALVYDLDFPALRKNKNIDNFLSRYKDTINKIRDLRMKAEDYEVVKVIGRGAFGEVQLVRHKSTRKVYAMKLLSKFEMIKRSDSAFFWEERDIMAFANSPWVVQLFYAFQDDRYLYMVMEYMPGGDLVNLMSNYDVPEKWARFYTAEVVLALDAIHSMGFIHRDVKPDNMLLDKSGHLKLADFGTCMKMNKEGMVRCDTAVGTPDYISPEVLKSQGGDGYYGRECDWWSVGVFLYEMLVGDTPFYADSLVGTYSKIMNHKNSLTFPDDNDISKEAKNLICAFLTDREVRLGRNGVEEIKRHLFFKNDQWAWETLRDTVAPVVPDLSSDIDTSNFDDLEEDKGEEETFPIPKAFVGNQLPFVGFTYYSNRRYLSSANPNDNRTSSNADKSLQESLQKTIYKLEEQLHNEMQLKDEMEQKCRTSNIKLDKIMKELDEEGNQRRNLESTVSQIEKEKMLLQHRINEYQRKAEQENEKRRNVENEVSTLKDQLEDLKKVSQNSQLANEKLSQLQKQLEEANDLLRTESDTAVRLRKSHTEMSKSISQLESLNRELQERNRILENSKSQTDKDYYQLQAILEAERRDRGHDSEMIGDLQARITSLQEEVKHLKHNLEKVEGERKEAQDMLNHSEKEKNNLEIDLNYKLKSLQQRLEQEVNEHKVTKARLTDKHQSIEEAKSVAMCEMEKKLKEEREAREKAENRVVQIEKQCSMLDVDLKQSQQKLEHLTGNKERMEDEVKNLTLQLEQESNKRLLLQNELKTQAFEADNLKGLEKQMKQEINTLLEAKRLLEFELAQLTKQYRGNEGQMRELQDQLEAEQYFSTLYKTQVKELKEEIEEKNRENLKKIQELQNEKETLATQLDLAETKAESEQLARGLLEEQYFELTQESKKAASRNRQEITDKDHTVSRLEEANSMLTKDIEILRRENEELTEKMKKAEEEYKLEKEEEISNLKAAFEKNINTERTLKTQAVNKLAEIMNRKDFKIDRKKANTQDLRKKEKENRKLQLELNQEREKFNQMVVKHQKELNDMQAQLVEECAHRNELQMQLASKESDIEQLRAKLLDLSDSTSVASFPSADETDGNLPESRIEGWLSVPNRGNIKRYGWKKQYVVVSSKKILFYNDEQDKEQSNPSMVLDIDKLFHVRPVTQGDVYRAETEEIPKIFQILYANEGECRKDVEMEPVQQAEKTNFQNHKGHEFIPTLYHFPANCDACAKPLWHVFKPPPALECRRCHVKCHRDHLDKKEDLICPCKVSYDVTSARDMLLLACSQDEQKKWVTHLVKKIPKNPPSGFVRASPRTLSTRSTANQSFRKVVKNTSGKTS
Sequence of SRC (P12931 whole entry): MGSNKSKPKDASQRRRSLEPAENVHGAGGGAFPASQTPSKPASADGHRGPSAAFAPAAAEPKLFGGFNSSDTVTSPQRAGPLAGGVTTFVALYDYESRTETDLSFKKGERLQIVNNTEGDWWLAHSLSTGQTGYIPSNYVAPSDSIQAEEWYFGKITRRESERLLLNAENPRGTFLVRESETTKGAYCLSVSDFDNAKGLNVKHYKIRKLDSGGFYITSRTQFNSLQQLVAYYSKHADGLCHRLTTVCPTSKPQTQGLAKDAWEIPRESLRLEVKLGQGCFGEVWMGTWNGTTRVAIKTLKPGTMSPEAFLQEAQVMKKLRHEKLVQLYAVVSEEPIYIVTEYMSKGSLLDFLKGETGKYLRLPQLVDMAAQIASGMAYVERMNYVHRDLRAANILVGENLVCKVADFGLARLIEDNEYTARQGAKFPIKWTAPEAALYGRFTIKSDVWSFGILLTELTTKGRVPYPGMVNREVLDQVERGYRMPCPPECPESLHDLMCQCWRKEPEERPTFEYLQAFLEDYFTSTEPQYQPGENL

remaining activity at 10 µM [1, 6] [%] | remaining activity at 10 µM [2, 6] [%] | remaining activity at 10 µM [3, 6] [%] | remaining activity at 10 µM [4, 6] [%] | remaining activity at 10 µM [5, 6] [%] | remaining activity at 10 µM [1, 7] [%] | remaining activity at 10 µM [2, 7] [%] | remaining activity at 10 µM [3, 7] [%] | remaining activity at 10 µM [4, 7] [%] | remaining activity at 10 µM [5, 7] [%] | Compound
98 | 99 | 100 | 95 | 99 |  |  |  |  |  | Nc1ccc2ccccc2c1-c1c(N)ccc2ccccc12 [1(R), (R)‐[1,1′‐binaphthalene]‐2,2′‐diamine]
 |  |  |  |  | 97 | 101 | 97 | 91 | 103 | Nc1ccc2ccccc2c1-c1c(N)ccc2ccccc12 [1(S), S‐BINAM]
